This passage reports IC50 results from patent US7157430B2, “(Substituted)acyl dipeptidyl inhibitors of the ICE/CED-3 family of cysteine proteases” (Idun Pharmaceuticals, Inc., priority 1998, dated 2007).

Common to all, as to format: biochemical
Test [1] deals with T1, CPP32 (Homo sapiens, UniProt P42574).
T1 sequence (P42574 29-175 limits assumed): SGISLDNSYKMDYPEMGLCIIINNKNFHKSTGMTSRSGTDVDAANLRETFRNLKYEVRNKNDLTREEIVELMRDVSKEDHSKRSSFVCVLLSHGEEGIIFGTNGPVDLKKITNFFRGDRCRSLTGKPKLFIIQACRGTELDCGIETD
T1 sequence (P42574 176-277 limits assumed): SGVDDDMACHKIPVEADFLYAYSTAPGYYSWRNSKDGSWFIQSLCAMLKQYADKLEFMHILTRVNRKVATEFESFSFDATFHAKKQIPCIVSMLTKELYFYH
As to the kind of experiment: Fluorescence enzyme assay, IC50 determination, CPP32. As to conditions: Table 3; method of Preparation 3A; read-out: CPP32 I50.

In test [2] the target is T2, mICE (Mus musculus, UniProt P29452).
T2 sequence (P29452 123-296 limits assumed): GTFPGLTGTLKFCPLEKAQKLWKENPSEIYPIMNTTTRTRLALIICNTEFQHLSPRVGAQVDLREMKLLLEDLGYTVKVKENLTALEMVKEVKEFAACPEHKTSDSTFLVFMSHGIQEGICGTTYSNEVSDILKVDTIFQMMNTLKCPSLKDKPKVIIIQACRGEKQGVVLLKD
T2 sequence (P29452 315-402 limits assumed): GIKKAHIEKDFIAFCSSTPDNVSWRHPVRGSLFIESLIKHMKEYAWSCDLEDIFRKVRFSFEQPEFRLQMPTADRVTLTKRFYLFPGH
Kind of test: Fluorescence enzyme assay, IC50 determination, ICE. As to conditions: Table 3; method of Preparation 3A; read-out: mICE I50. In a few lines: (§1)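 Recombinant caspase is preincubated with compound for 30 min at room temperature in pH 7.5 HEPES buffer (1 mM EDTA, 0.1% CHAPS, 10% sucrose, 2 mM DTT). The reaction is started with Ac-YVAD-AMC for ICE or Ac-DEVD-AMC for Mch2, Mch3 and Mch5. AMC fluorescence is followed for one hour to give IC50.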

Test [3] concerns the target T3, MCH-3 (Homo sapiens, UniProt P55210).
T3 sequence (P55210 24-198 limits assumed): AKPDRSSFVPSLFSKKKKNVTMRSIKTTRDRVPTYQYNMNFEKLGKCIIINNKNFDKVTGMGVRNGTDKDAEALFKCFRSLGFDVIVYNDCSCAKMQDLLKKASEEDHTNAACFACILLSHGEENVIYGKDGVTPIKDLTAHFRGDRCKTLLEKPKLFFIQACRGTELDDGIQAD
T3 sequence (P55210 207-303 limits assumed): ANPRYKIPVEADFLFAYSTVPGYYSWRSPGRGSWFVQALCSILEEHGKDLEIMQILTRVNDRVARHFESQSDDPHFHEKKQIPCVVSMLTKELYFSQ
As to the kind of experiment: Fluorescence enzyme assay, IC50 determination, Mch3. Conditions: Table 3; method of Preparation 3A; read-out: MCH3 I50. The gist of the method:
as §1

Test [4] has as its target MCH-5 (Homo sapiens, UniProt Q14790). Kind of test: Fluorescence enzyme assay, IC50 determination, Mch5. As to conditions: Table 3; method of Preparation 3A; read-out: MCH5 I50. In a few lines: as §1
For test [5], the target named is T4, MCH-2 (Homo sapiens, UniProt P55212).
T4 sequence (P55212 24-179 limits assumed): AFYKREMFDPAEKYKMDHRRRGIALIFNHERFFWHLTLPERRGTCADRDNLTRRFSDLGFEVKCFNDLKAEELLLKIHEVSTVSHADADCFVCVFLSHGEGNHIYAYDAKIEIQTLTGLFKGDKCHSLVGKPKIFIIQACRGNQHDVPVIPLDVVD
T4 sequence (P55212 194-293 limits assumed): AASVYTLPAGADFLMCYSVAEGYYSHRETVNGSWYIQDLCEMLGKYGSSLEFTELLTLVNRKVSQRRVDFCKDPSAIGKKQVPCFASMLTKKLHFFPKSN
As to the kind of experiment: Fluorescence enzyme assay, IC50 determination, Mch2. As to conditions: Table 3; method of Preparation 3A; read-out: MCH2 I50. The gist of the method:
as §1

MCH-5, sequence (Q14790 217-374 limits assumed, species assumed): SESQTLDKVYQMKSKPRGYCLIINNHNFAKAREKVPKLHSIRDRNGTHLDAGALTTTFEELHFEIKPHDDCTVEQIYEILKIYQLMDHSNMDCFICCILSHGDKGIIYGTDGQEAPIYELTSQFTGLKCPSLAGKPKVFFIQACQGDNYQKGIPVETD
MCH-5, sequence (Q14790 385-479 limits assumed, species assumed): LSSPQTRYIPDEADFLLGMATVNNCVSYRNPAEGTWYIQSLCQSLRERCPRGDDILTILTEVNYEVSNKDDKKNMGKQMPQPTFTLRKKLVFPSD

As to `CC(C)C[C@H](NC(=O)COc1cccc2ncccc12)C(=O)N[C@H](C=O)CC(=O)O` [Example 32], the IC50 was 0.412 µM in test [1]; 5.25 µM in test [2]; 3.85 µM in test [3]; 4.02 µM in test [4]; over 50 µM in test [5].

Take `CC(C)C[C@H](NC(=O)CCOc1ccccc1)C(=O)N[C@H](C=O)CC(=O)O` [Example 37]: the IC50 is 0.419 µM in test [1]; 9.42 µM in test [2]; 6.04 µM in test [3]; over 10 µM in test [4]; over 50 µM in test [5].

For the compound `CC(C)C[C@H](NC(=O)COc1ccc(OCc2ccccc2)cc1)C(=O)N[C@H](C=O)CC(=O)O` [Example 46], the IC50 in test [1] turned out to be 0.57 µM; in test [2], 2.51 µM; in test [3], 7.25 µM; in test [4], 8.6 µM; in test [5] it was 33.4 µM.

Take `CC(C)C[C@H](NC(=O)COc1ccccc1OCc1ccccc1)C(=O)N[C@H](C=O)CC(=O)O` [Example 45]: the IC50 in test [1] was 0.222 µM; in test [2] it was 2.4 µM; in test [3] it was 2.2 µM; in test [4], 4.34 µM; in test [5], 9.75 µM.

Consider `CC(C)C[C@H](NC(=O)CCOc1ccc2ccccc2c1)C(=O)N[C@H](C=O)CC(=O)O` [Example 23], for which the IC50 in test [1] came out at 0.91 µM; in test [2], 1.32 µM; in test [3] it was 9.65 µM; in test [4], 15.2 µM; in test [5], 5.9 µM.
